Earlier results in patent publication US7335651B2, “Compositions incorporating(-)-hydroxycitric acid and related methods for promoting fat oxidation” (Interhealth Nutraceuticals Incorporated, priority 2001, dated 2008).
Read-outs that look alike come from different tables or passages of the source.

How the values were obtained:
[1] = acute toxicity tests
[2] = biological target: T1, ATP-citrate lyase (Homo sapiens, UniProt P53396)
T1 sequence (P53396 1-1101): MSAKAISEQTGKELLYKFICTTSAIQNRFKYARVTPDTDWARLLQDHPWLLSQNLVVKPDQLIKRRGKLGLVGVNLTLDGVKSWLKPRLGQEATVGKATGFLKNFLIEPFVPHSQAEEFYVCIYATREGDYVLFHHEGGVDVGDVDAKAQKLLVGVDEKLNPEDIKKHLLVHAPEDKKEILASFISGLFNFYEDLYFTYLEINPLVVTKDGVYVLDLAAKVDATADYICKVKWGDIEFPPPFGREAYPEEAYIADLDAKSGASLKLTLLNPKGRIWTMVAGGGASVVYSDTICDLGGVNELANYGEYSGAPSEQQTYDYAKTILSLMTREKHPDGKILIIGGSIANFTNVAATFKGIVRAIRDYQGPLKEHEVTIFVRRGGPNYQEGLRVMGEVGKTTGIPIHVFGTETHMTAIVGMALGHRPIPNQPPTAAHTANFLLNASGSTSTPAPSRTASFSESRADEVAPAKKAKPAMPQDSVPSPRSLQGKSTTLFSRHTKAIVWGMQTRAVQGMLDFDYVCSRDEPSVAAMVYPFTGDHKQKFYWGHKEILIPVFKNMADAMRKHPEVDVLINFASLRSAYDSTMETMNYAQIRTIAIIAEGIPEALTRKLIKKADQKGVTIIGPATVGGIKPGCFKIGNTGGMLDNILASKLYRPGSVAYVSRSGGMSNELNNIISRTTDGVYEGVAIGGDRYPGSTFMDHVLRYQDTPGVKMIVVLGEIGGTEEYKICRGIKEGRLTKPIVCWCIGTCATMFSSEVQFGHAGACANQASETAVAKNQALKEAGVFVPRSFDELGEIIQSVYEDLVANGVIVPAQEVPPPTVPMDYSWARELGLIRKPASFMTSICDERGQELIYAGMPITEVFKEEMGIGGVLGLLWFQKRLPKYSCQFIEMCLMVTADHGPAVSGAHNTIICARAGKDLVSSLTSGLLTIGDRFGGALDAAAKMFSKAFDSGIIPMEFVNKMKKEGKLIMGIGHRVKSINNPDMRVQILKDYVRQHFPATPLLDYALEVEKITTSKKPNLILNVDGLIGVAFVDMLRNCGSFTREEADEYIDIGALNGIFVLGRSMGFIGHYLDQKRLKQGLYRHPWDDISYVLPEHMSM

[3] = tested on: liver lipogenesis; settings: rats; acute oral dose 2.63 mmoles/kg (roughly 594 mg/kg) before a standardized synthetic meal; up to 8 hours after the meal
[4] = tested on: growing rats; settings: thirty days
[5] = tested on: young obese women; settings: eight weeks
[6] = tested on: DNA

Row | Compound | Acute toxicity compared with citric acid [1] | Mode of inhibition of ATP-citrate lyase [2] | Decrease in liver lipogenesis [3] | Decrease in body weight gain ([4]; 0.33 mmoles/kg twice daily) | Decrease in body weight gain ([4]; 2.63 mmoles/kg once daily) | Decrease in body weight gain ([4]; single daily administration) | Body weight change with exercise ([5]; in combination with exercise, O-NBC at 400 micrograms chromium per day) | Body weight change without exercise ([5]; no exercise) | DNA damage and mutagenicity [6]
1 | O=C(O)CC(O)(C(=O)O)C(O)C(=O)O (single isomer, unassigned; (-)) [HCA, (−)-hydroxycitric acid] | even safer than citric acid | competitive inhibitor | roughly 70% | significant | significant | no significant reductions | – | – | –
2 | chromium picolinate | – | – | – | – | – | – | no change in weight | significant weight gain | damage DNA and be mutagenic
